{
  "source": "patent US20100291025A1",
  "about": "“INDAZOLE INHIBITORS OF TYROSINE KINASE” (AUSPEX PHARMACEUTICALS, INC., priority 2009, published 2010)",
  "origin": "cited, not measured here",
  "conditions": "in vivo",
  "data": [
    {"compound": "Cc1ccc(Nc2nccc(N(C)c3ccc4c(C)n(C)nc4c3)n2)cc1S(N)(=O)=O", "note": "[Pazopanib, 5-[[4-[(2,3-Dimethyl-2H-indazol-6-yl)(methyl)amino]pyrimidin-2-yl]amino]-2-methylbenzenesulfonamide]", "values": [
      {"measurement": "adverse effects associated with administration", "value": "nausea, diarrhea, anorexia, hypertension, fatigue, hair depigmentation, and vomiting"}
    ]}
  ]
}
